Results on four compounds are retold here after patent US20070004623A1, “Use of hydroxylated amino acids for treating diabetes” (Innodia Inc., priority 2003, published 2007).

Holding throughout (assay type): cell-based
Experiment [1] has as its system INS-1 cells. As to the kind of experiment: glucose-dependent insulin secretion in INS-1 cells, ID 1101 with Glibenclamide. The following applies: 4.5 mM glucose, 1 hour. As to the method: The optical isomer 2S,3R,4S of 4-hydroxyisoleucine (ID 1101) was tested in a blinded manner, alone and in combination with Glibenclamide, to determine the insulinotropic effect on INS-1 cells. Briefly, the cells were plated at a density of 2×10^5 in 12 well plates and incubated for 2 days in RPMI with 10% fetal calf serum and 11 mM glucose. The medium was removed on the third day post-plating and replaced with RPMI containing 3 mM glucose with 10% fetal calf serum. The cells were incubated for an additional 24 hours. On the fourth day post-plating, the medium was removed and replaced with Krebs-Ringers bicarbonate buffer containing 2 mM glucose. The cells were incubated for 30 minutes. The buffer was removed and replaced with Krebs-Ringers bicarbonate buffer with 4.5 mM glucose, containing ID 1101 at 0.1 mM, Glibenclamide alone at 10-10 mM or 10^−11 mM, or a combination of the 2 compounds. The cells were incubated for 1 hour. Basal insulin secretion was determined by incubating the cells in the presence of buffer with 2 mM glucose. The presence of glucose at 4.5 mM stimulated insulin secretion and served as the positive control.

For experiment [2], the system named is differentiated 3T3-L1 adipocyte cells. The experiment is described as follows: uptake of 3H-deoxy-glucose by differentiated 3T3-L1 adipocyte cells. The following applies: last 30 minutes of 5 hour starvation, control cells 2 pmol/mg/minute. As for the experimental part:
Briefly, 3T3-L1 adipocyte cells (ATCC; Cl-173) were cultured in 12 well tissue culture plates for 3 days in order to reach confluence ([…] al., “Analysis of insulin-stimulated glucose uptake in differentiated 3T3-L1 adipocytes,” Diabetes Mellitus: Methods and Protocols, ([…]., 2003, pages 97-103). The culture medium was removed and replaced with differentiation-medium (Green et al., Cell 3:127-133, 1974; Madsen et al., Biochem. J. 375:539-549, 2003), and then the cells were incubated for an additional 9 days. The state of differentiation was confirmed by visual examination. Cell starvation was conducted for 5 hours by replacing the differentiation medium with medium lacking fetal calf serurn. During the starvation period, the cells were exposed ID 1101 (0.5 or 1.0 mM), for 0.5, 1, 2, 4, or 5 hours. The cells were exposed to insulin (0.0167 U/ml; Sigma; Cat. No. 15534) for the last 0.5 hour of the starvation period, either alone or in combination ID 1101. The cells were washed, and then fresh medium containing 16 μM ^3H-Deoxy-D-glucose (0.5 μCi/ml) and 10 μM 2-Deoxy-D-glucose was added and the cells were incubated for 10 minutes. Glucose uptake was stopped by washing the cells with ice cold PBS. The cells were lysed and specific activity in the lysate was determined relative to background uptake of ^3H-deoxy-glucose. […]

The test system of experiment [3] is INS-1 cells. The experiment is described as follows: glucose-dependent insulin secretion in INS-1 cells, ID 1101 with Exendin-4. The following applies: 4.5 mM glucose, 1 hour. As for the experimental part: The optical isomer 2S,3R,4S of 4-hydroxyisoleucine (ID 1101) was tested alone and in combination with Exendin-4, to determine the insulinotropic effect on INS-1 cells. Briefly, the cells were plated at a density of 2×10^5 in 12 well plates and incubated for 2 days in RPMI with 10% fetal calf serum and 11 mM glucose. The medium was removed on the third day post-plating and replaced with RPMI containing 3 mM glucose with 10% fetal calf serum. The cells were incubated for an additional 24 hours. On the fourth day post-plating, the medium was removed and replaced with Krebs-Ringers bicarbonate buffer containing 2 mM glucose. The cells were incubated for 30 ninutes. The buffer was removed and replaced with Krebs-Ringers bicarbonate buffer with 4.5 mM glucose, containing ID 1101 at 0.01 or 0.05 mM, Exendin-4 alone at 10^−9 mM or 10^−10 mM, or a combination of the 2 compounds. The cells were incubated for 1 hour. Basal insulin secretion was determined by incubating the cells in the presence of buffer with 2 mM glucose. The effect of glucose at 4.5 mM served as the control.

Regarding `COc1ccc(Cl)cc1C(=O)NCCc1ccc(S(=O)(=O)NC(=O)NC2CCCCC2)cc1` [Glibenclamide], the insulin secretion result in the experiment on INS-1 cells [1] (Glibenclamide 10^−10 mM) is recorded as “showed a stimulatory effect”; with INS-1 cells [1] (Glibenclamide 10^−11 mM), “not”.
With `C[C@@H]([C@H](C)O)[C@H](N)C(=O)O` [ID 1101, 4-hydroxyisoleucine], in experiment [2] (ID 1101 0.5 or 1.0 mM as sole treatment), the “stimulation of glucose uptake above the background level” value is listed as “approximately 5 pmol/mg/minute”. The insulin secretion result in the experiment on INS-1 cells [1] (ID 1101 0.1 mM) and in the experiment on INS-1 cells [3] (ID 1101 0.01 or 0.05 mM) was “stimulated insulin secretion above background levels” each time.
On to Exendin-4 [reference compound], for which, in the experiment with INS-1 cells [3] (Exendin-4 10^−9 and 10^−10 mM), the insulin secretion result is recorded as “did not show a stimulatory effect”.
As to insulin, the “stimulation of glucose uptake above the background level” value in experiment [2] (insulin 0.0167 U/ml as sole treatment) is “approximately 5 pmol/mg/minute”.
